Source: US5675003A, “3-ammoniopropenyl cephalosporin compounds as antibacterial agents” (Korea Institute of Science and Technology, priority 1995, dated 1997)
≈ marks a conversion by molar mass, not a printed value.

How the values were obtained:
anti-pseudomonal = conditions: in words, prior art; cited from earlier work
staphylococci = conditions: in words, prior art; cited from earlier work
[1] = system: Streptococcus pyogenes 308 A; experiment: MIC, in vitro agar dilution method; assay type: cell-based; conditions: Streptococcus pyogenes, 308A
Procedure: (§1) The MICs of the new cephalosporins of the present invention against Gram-positive and Gram-negative bacteria were determined by an in vitro agar dilution method. For comparisons, the MIC values of ceftazidime are also listed.
(§2) In vitro antimicrobial activity of the cephalosporins (l) (MIC:
S.p.1, Streptococcus pyogenes 308 A;

[2] = system: Pseudomonas aeruginosa 1592 E; experiment: MIC, in vitro agar dilution method; assay type: cell-based; conditions: Pseudomonas aeruginosa, 1592E
Procedure: as §1, §2
P.a.2, Pseudomonas aeruginosa 1592 E;

[3] = system: Staphlococcus aureus SG 511; experiment: MIC, in vitro agar dilution method; assay type: cell-based
Procedure: as §1, §2
S.a.1, Staphlococcus aureus SG 511;

[4] = system: Klebsiella aerogenes 1552 E; experiment: MIC, in vitro agar dilution method; assay type: cell-based; conditions: Klebsiella aerogenes, 1552E
Procedure: as §1, §2
K.a., Klebsiella aerogenes 1552 E;

[5] = system: Enterobacter cloacae 1321 E; experiment: MIC, in vitro agar dilution method; assay type: cell-based; conditions: Enterobacter cloacae, 1321E
Procedure: as §1, §2
En.c.2, Enterobacter cloacae 1321 E.

[6] = system: Enterobacter cloacae P 99; experiment: MIC, in vitro agar dilution method; assay type: cell-based
Procedure: as §1, §2
En.c.1, Enterobacter cloacae P 99;

[7] = system: Klebsiella oxytoca 1082 E; experiment: MIC, in vitro agar dilution method; assay type: cell-based; conditions: Klebsiella oxytoca, 1082E
Procedure: as §1, §2
K.o., Klebsiella oxytoca 1082 E;

[8] = system: Streptococcus pyogenes A 77; experiment: MIC, in vitro agar dilution method; assay type: cell-based; conditions: Streptococcus pyogenes, A77
Procedure: as §1, §2
S.p.2, Streptococcus pyogenes A 77;

Escherichia coli DC0 = experiment: MIC, in vitro agar dilution method; assay type: cell-based; conditions: E.c.2, Escherichia coli DC0
Procedure: as §1, §2
E.c.2, Escherichia coli DC0;

[9] = system: Pseudomonas aeruginosa 9027; experiment: MIC, in vitro agar dilution method; assay type: cell-based; conditions: Pseudomonas aeruginosa, 9027
Procedure: as §1, §2
P.a.1, Pseudomonas aeruginosa 9027;

[10] = system: Staphylococcus aureus 285; experiment: MIC, in vitro agar dilution method; assay type: cell-based; conditions: Staphylococcus aureus, 285
Procedure: as §1, §2
E.c. TEM, S.a. 2, Staphylococcus aureus 285;

Escherichia coli 1507 E = experiment: MIC, in vitro agar dilution method; assay type: cell-based; conditions: E.c.4, Escherichia coli 1507 E
Procedure: as §1, §2
E.c.4, Escherichia coli 1507 E;

Escherichia coli O55 = experiment: MIC, in vitro agar dilution method; assay type: cell-based; conditions: E.c.1, Escherichia coli O55
Procedure: as §1, §2
E.c.1, Escherichia coli O55;

Salmonella typhimurium = experiment: MIC, in vitro agar dilution method; assay type: cell-based; conditions: Salmonella enterica, TYPHIMURIUM
Procedure: as §1, §2
S.t., Salmonella typhimurium;

[11] = system: Pseudomonas eruginosa 1771; experiment: MIC, in vitro agar dilution method; assay type: cell-based; conditions: P.a.3, Pseudomonas eruginosa 1771
Procedure: as §1, §2
P.a.3, Pseudomonas eruginosa 1771;

[12] = system: Pseudomonas aeruginosa 1771 M; experiment: MIC, in vitro agar dilution method; assay type: cell-based; conditions: Pseudomonas aeruginosa, 1771M
Procedure: as §1, §2
P.a.4, Pseudomonas aeruginosa 1771 M;

Escherichia coli TEM = experiment: MIC, in vitro agar dilution method; assay type: cell-based; conditions: E.c.3, Escherichia coli TEM
Procedure: as §1, §2
E.c.3, Escherichia coli TEM;

E.c.5 = experiment: MIC, in vitro agar dilution method; assay type: cell-based; conditions: Escherichia coli, E.c.5 (strain not defined)
Procedure: as §1

Enterobacter cloacae P99 = conditions: in words, prior art; cited from earlier work
[13] = system: Staphylococcus aureus 503; experiment: MIC, in vitro agar dilution method; assay type: cell-based; conditions: Staphylococcus aureus, 503
Procedure: as §1, §2
S.a.3, Staphylococcus aureus 503;

Streptococcus faecium MD = experiment: MIC, in vitro agar dilution method; assay type: cell-based; conditions: Enterococcus faecium
Procedure: as §1, §2
S.f., Streptococcus faecium MD;

Structure (SMILES): CO/N=C(\C(=O)N[C@@H]1C(=O)N2C(C(=O)[O-])=C(C[N+]3(C)CCCC3)CS[C@H]12)c1csc(N)n1 [Cefepime, cefepime]
- anti-pseudomonal activity (anti-pseudomonal): high anti-pseudomonal activity
- activity against staphylococci (staphylococci): improved anti-staphylococcaI activity

Structure (SMILES): CC(C)(O/N=C(\C(=O)N[C@@H]1C(=O)N2C(C(=O)[O-])=C(C[n+]3ccccc3)CS[C@H]12)c1csc(N)n1)C(=O)O [Ceftazidime, ceftazidime, reference compound]
- MIC [1]: 0.098 µg/mL (≈ 0.179 µM)
- MIC [2]: 0.78 µg/mL (≈ 1.43 µM)
- MIC [3]: 12.5 µg/mL (≈ 22.9 µM)
- anti-pseudomonal activity (anti-pseudomonal): potent anti-pseudomonal activity
- MIC [4]: 0.098 µg/mL (≈ 0.179 µM)
- MIC [5]: 0.025 µg/mL (≈ 0.0457 µM)
- MIC ([6]; Enterobacter cloacae, P99): 100 µg/mL (≈ 183 µM)
- activity against Enterobacter cloacae P99 ([6]; in words): resistant to ceftazidime
- MIC [7]: 0.39 µg/mL (≈ 0.714 µM)
- MIC [8]: 0.049 µg/mL (≈ 0.0896 µM)
- MIC (Escherichia coli DC0): 0.098 µg/mL (≈ 0.179 µM)
- MIC [9]: 3.13 µg/mL (≈ 5.73 µM)
- activity against staphylococci (staphylococci): less active against staphylococci
- MIC [10]: 12.5 µg/mL (≈ 22.9 µM)
- MIC (Escherichia coli 1507 E): 0.2 µg/mL (≈ 0.366 µM)
- MIC (Escherichia coli O55): 0.098 µg/mL (≈ 0.179 µM)
- MIC (Salmonella typhimurium): 0.2 µg/mL (≈ 0.366 µM)
- MIC [11]: 0.39 µg/mL (≈ 0.714 µM)
- MIC [12]: 0.098 µg/mL (≈ 0.179 µM)
- MIC (Escherichia coli TEM): 0.098 µg/mL (≈ 0.179 µM)
- MIC (E.c.5): 0.2 µg/mL (≈ 0.366 µM)
- activity against Enterobacter cloacae P99 (Enterobacter cloacae P99): less active against staphylococci and Enterobacter cloacae P99
- MIC [13]: 3.13 µg/mL (≈ 5.73 µM)
- MIC (Streptococcus faecium MD): 100 µg/mL (≈ 183 µM)
